# Data: patent US5698411A, “Method for determining activity of enzymes in metabolically active whole cells” (priority 1995, dated 1997)
# “And” between values parts separate entries of the source, which are not always exact repeats. Equal entries are not always repeated.
# Columns and labels:
# Format in all cases: cell-based, human
# [1] = test system: metabolically active whole cell; assay: substrate panel in normals and HIV + patients, TB infection (Table 4); design: unit not given here
# Procedure: A panel of assay compounds are assembled consisting of Ala-aminopeptidase and Lys-aminopeptidase, Dipeptidyl peptidase IV (Ala-Ala)2 rhodamine 110 and Cathepsin D to indicate possible TB infection in AIDS related cases.
# A panel Of enzymatic substrates is performed consisting of Ala-aminopeptidase and Lys-aminopeptidase, Dipeptidyl peptidase IV (Ala-Ala)2 rhodamine 110 and Cathepsin D to indicate possible TB infection in AIDS related cases.
# lymphocytes [2] = assay: peptidase activity in leukemia and non-leukemia patients, lymphocytes (Table 6C); design: unit not given here
# Excerpt: (§1) Artificial intelligence was used to analyze data of cellular enzyme functions, and determine normal and disease states. Peptidases were used to distinguish leukemia from non-leukemia (output pattern). For input patterns lymphocyte and granulocyte cell types were used with aminopeptidases, cathepsins and dipeptidylpeptidase enzyme activities. In this Example, illustrated in Tables 6A-6C, three normals and three leukemia patients were used as known output patterns for the neural network to learn (in practice, the larger the learning set the more accurate unknown prediction will be). Unknowns were then presented to the learned algorithm as shown in the test case examples. Clinical diagnosis was confirmed by physicians. The trained neural network was able to correctly classify the leukemia from the non-leukemia.
# granulocytes [3] = assay: peptidase activity in leukemia and non-leukemia patients, granulocytes (Table 6C); design: unit not given here
# Excerpt: as §1
# granulocytes [4] = assay: aberrant enzyme activities in febrile children, granulocytes (Table 7)
# lymphocytes [5] = assay: aberrant enzyme activities in febrile children, lymphocytes (Table 7)
# monocytes = assay: aberrant enzyme activities in febrile children, monocytes (Table 7)
structure (smiles),measurement,setting,value
NC(=O)CC[C@H](N)C(=O)N[C@@H](CO)C(=O)Nc1ccc2c(c1)Oc1cc(NC(=O)[C@H](CO)NC(=O)[C@@H](N)CCC(N)=O)ccc1C21OC(=O)c2ccccc21 (relative stereo) [GLN--SER*],MEAN DELTA FL,[1]; HIV + PATIENTS,13.7 and 12.7
same,MEAN DELTA FL,[1]; NORMALS,11.9 and 6.1
"C[C@H](N)C(=O)Nc1ccc2c(c1)Oc1cc(NC(=O)[C@H](C)N)ccc1C21OC(=O)c2ccccc21 [ALA, (Ala)2 Rho 110]","enzyme activity, Lymphs",lymphocytes [2]; J4 11/21/91 acute leuk.,86.00
same,"enzyme activity, Lymphs",lymphocytes [2]; J4 12/2/91 A L,68.10
same,"enzyme activity, Lymphs",lymphocytes [2]; J4 12/3/91 acute leuk.,74.64
same,"enzyme activity, Lymphs",lymphocytes [2]; J5 11/27/91 A M L,92.44
same,"enzyme activity, Lymphs",lymphocytes [2]; J19 11/27/91 C L L,47.78
same,"enzyme activity, Lymphs",lymphocytes [2]; J22 12/2/91 A M L,84.42
same,"enzyme activity, Lymphs",lymphocytes [2]; J22 12/9/91 A M L,83.48
same,"enzyme activity, Lymphs",lymphocytes [2]; N191 normal,95.72
same,"enzyme activity, Lymphs",lymphocytes [2]; N192 normal,103.31
same,"enzyme activity, Lymphs",lymphocytes [2]; N193 normal,100.50
same,"enzyme activity, Lymphs",lymphocytes [2]; N194 normal,97.02
same,"enzyme activity, Lymphs",lymphocytes [2]; N195 normal,118.81
same,"enzyme activity, Lymphs",lymphocytes [2]; N197 normal,96.36
same,"enzyme activity, Lymphs",lymphocytes [2]; N199 normal,91.07
same,"enzyme activity, Lymphs",lymphocytes [2]; N200 normal,101.38
same,"enzyme activity, Lymphs",lymphocytes [2]; N201 normal,106.72
same,"enzyme activity, Lymphs",lymphocytes [2]; N202 normal,118.37
same,"enzyme activity, Lymphs",lymphocytes [2]; N206 normal,122.71
same,"enzyme activity, Lymphs",lymphocytes [2]; P68 tachycardia,1471.10
same,"enzyme activity, Lymphs",lymphocytes [2]; P69 pancreatic CA,130.34
same,"enzyme activity, Lymphs",lymphocytes [2]; P70 cirrhosis/hemobilia,141.87
same,"enzyme activity, Lymphs",lymphocytes [2]; P71 ac. pyelonephritis,109.26
same,"enzyme activity, Grans",granulocytes [3]; J4 11/21/91 acute leuk.,193.43
same,"enzyme activity, Grans",granulocytes [3]; J4 12/2/91 A L,139.53
same,"enzyme activity, Grans",granulocytes [3]; J4 12/3/91 acute leuk.,138.89
same,"enzyme activity, Grans",granulocytes [3]; J5 11/27/91 A M L,194.85
same,"enzyme activity, Grans",granulocytes [3]; J19 11/27/91 C L L,143.11
same,"enzyme activity, Grans",granulocytes [3]; J22 12/2/91 A M L,157.12
same,"enzyme activity, Grans",granulocytes [3]; J22 12/9/91 A M L,157.48
same,"enzyme activity, Grans",granulocytes [3]; N191 normal,177.32
same,"enzyme activity, Grans",granulocytes [3]; N192 normal,154.84
same,"enzyme activity, Grans",granulocytes [3]; N193 normal,178.64
same,"enzyme activity, Grans",granulocytes [3]; N194 normal,164.00
same,"enzyme activity, Grans",granulocytes [3]; N195 normal,221.28
same,"enzyme activity, Grans",granulocytes [3]; N197 normal,188.20
same,"enzyme activity, Grans",granulocytes [3]; N199 normal,157.30
same,"enzyme activity, Grans",granulocytes [3]; N200 normal,171.06
same,"enzyme activity, Grans",granulocytes [3]; N201 normal,206.06
same,"enzyme activity, Grans",granulocytes [3]; N202 normal,201.17
same,"enzyme activity, Grans",granulocytes [3]; N206 normal,232.57
same,"enzyme activity, Grans",granulocytes [3]; P68 tachycardia,276.07
same,"enzyme activity, Grans",granulocytes [3]; P69 pancreatic CA,204.02
same,"enzyme activity, Grans",granulocytes [3]; P70 cirrhosis/hemobilia,236.23
same,"enzyme activity, Grans",granulocytes [3]; P71 ac. pyelonephritis,185.37
same,"aberrant enzyme activity, GRANS",granulocytes [4]; P88 Enteritis,.smallcircle.
same,"aberrant enzyme activity, GRANS",granulocytes [4]; P89 Viral Stomatitis,.smallcircle.
same,"aberrant enzyme activity, GRANS",granulocytes [4]; P92 Adenitis,+ (>0.25 Increase over normal range)
same,"aberrant enzyme activity, GRANS",granulocytes [4]; P97 Pyelonephritis,+ (>0.25 Increase over normal range)
same,"aberrant enzyme activity, GRANS",granulocytes [4]; P102 UTI,.smallcircle.
same,"aberrant enzyme activity, GRANS",granulocytes [4]; P103 Viral Syndrome,.smallcircle.
same,"aberrant enzyme activity, LYMPHS",lymphocytes [5]; P88 Enteritis,.smallcircle.
same,"aberrant enzyme activity, LYMPHS",lymphocytes [5]; P89 Viral Stomatitis,.smallcircle.
same,"aberrant enzyme activity, LYMPHS",lymphocytes [5]; P92 Adenitis,.smallcircle.
same,"aberrant enzyme activity, LYMPHS",lymphocytes [5]; P97 Pyelonephritis,.smallcircle.
same,"aberrant enzyme activity, LYMPHS",lymphocytes [5]; P102 UTI,.smallcircle.
same,"aberrant enzyme activity, LYMPHS",lymphocytes [5]; P103 Viral Syndrome,.smallcircle.
same,MEAN DELTA FL,[1]; HIV + PATIENTS,59.0
same,MEAN DELTA FL,[1]; NORMALS,132.0
same,"aberrant enzyme activity, MONOS",monocytes; P88 Enteritis,.smallcircle.
same,"aberrant enzyme activity, MONOS",monocytes; P89 Viral Stomatitis,.smallcircle.
same,"aberrant enzyme activity, MONOS",monocytes; P92 Adenitis,+ (>0.25 Increase over normal range)
same,"aberrant enzyme activity, MONOS",monocytes; P97 Pyelonephritis,+ (>0.25 Increase over normal range)
same,"aberrant enzyme activity, MONOS",monocytes; P102 UTI,+ (>0.25 Increase over normal range)
same,"aberrant enzyme activity, MONOS",monocytes; P103 Viral Syndrome,.smallcircle.
C[C@H](N)C(=O)NCC(=O)Nc1ccc2c(c1)Oc1cc(NC(=O)CNC(=O)[C@H](C)N)ccc1C21OC(=O)c2ccccc21 [ALA--GLY****],MEAN DELTA FL,[1]; HIV + PATIENTS,39.9 and 29.7
same,MEAN DELTA FL,[1]; NORMALS,48.0 and 31.6
"CC(C)C[C@H](NC(=O)CN)C(=O)Nc1ccc2c(c1)Oc1cc(NC(=O)[C@H](CC(C)C)NC(=O)CN)ccc1C21OC(=O)c2ccccc21 [GL, (H Gly--Leu)2 Rho 110 .2FTA]","aberrant enzyme activity, GRANS",granulocytes [4]; P92 Adenitis,.smallcircle.
same,"aberrant enzyme activity, GRANS",granulocytes [4]; P103 Viral Syndrome,.smallcircle.
same,"aberrant enzyme activity, LYMPHS",lymphocytes [5]; P92 Adenitis,.smallcircle.
same,"aberrant enzyme activity, LYMPHS",lymphocytes [5]; P97 Pyelonephritis,.smallcircle.
same,"aberrant enzyme activity, LYMPHS",lymphocytes [5]; P103 Viral Syndrome,.smallcircle.
same,MEAN DELTA FL,[1]; HIV + PATIENTS,16.3
same,MEAN DELTA FL,[1]; NORMALS,9.5
same,"aberrant enzyme activity, MONOS",monocytes; P92 Adenitis,.smallcircle.
same,"aberrant enzyme activity, MONOS",monocytes; P97 Pyelonephritis,.smallcircle.
same,"aberrant enzyme activity, MONOS",monocytes; P103 Viral Syndrome,.smallcircle.
NCC(=O)N1CCC[C@H]1C(=O)Nc1ccc2c(c1)Oc1cc(NC(=O)[C@@H]3CCCN3C(=O)CN)ccc1C21OC(=O)c2ccccc21 [GLY--PRO*],MEAN DELTA FL,[1]; HIV + PATIENTS,21.4
same,MEAN DELTA FL,"[1]; HIV + PATIENTS, listed as GLY--PRO****",18.4
same,MEAN DELTA FL,[1]; NORMALS,50.9
same,MEAN DELTA FL,"[1]; NORMALS, listed as GLY--PRO****",46.7
"NCCCC[C@H](N)C(=O)Nc1ccc2c(c1)Oc1cc(NC(=O)[C@@H](N)CCCCN)ccc1C21OC(=O)c2ccccc21 [LYS, (H-L-Lys)2 Rho 110 .4TFA]","enzyme activity, Lymphs",lymphocytes [2]; J4 11/21/91 acute leuk.,0.77
same,"enzyme activity, Lymphs",lymphocytes [2]; J19 11/27/91 C L L,0.98
same,"enzyme activity, Lymphs",lymphocytes [2]; J22 12/2/91 A M L,0.74
same,"enzyme activity, Lymphs",lymphocytes [2]; J22 12/9/91 A M L,1.20
same,"enzyme activity, Lymphs",lymphocytes [2]; N192 normal,0.56
same,"enzyme activity, Lymphs",lymphocytes [2]; N193 normal,0.52
same,"enzyme activity, Lymphs",lymphocytes [2]; N194 normal,0.93
same,"enzyme activity, Lymphs",lymphocytes [2]; N197 normal,0.70
same,"enzyme activity, Lymphs",lymphocytes [2]; N199 normal,0.33
same,"enzyme activity, Lymphs",lymphocytes [2]; N200 normal,0.90
same,"enzyme activity, Lymphs",lymphocytes [2]; N202 normal,0.71
same,"enzyme activity, Lymphs",lymphocytes [2]; P71 ac. pyelonephritis,0.91
same,"enzyme activity, Grans",granulocytes [3]; J22 12/9/91 A M L,1.90
same,"enzyme activity, Grans",granulocytes [3]; N191 normal,1.20
same,"enzyme activity, Grans",granulocytes [3]; N192 normal,1.20
same,"enzyme activity, Grans",granulocytes [3]; N199 normal,0.95
same,"aberrant enzyme activity, GRANS",granulocytes [4]; P103 Viral Syndrome,.smallcircle.
same,"aberrant enzyme activity, LYMPHS",lymphocytes [5]; P92 Adenitis,.smallcircle.
same,"aberrant enzyme activity, LYMPHS",lymphocytes [5]; P97 Pyelonephritis,.smallcircle.
same,"aberrant enzyme activity, LYMPHS",lymphocytes [5]; P103 Viral Syndrome,.smallcircle.
same,MEAN DELTA FL,[1]; HIV + PATIENTS,7.4
same,MEAN DELTA FL,[1]; NORMALS,10.5
same,"aberrant enzyme activity, MONOS",monocytes; P97 Pyelonephritis,.smallcircle.
C[C@@H](O)[C@H](N)C(=O)N1CCC[C@H]1C(=O)Nc1ccc2c(c1)Oc1cc(NC(=O)[C@@H]3CCCN3C(=O)[C@@H](N)[C@@H](C)O)ccc1C21OC(=O)c2ccccc21 [THR--PRO*],MEAN DELTA FL,[1]; HIV + PATIENTS,10.2
same,MEAN DELTA FL,[1]; NORMALS,17.3
